Test results reported in US4593104A, “2-halo-N-(azole-1-yl-methyl)-substituted acetanilides” (BASF Aktiengesellschaft, priority 1976, dated 1986).

Experiments:
[1] = system: Beta vulg.; test: Table 13, % damage; assay type: in vivo, Beta vulgaris
Text: (§1) The vessels employed were plastic flowerpots having a volume of 300 cm^3; the substrate was a sandy loam containing about 1.5% humus. The seeds of the test plants (see Table 1) were sown shallow, and separated according to species. In the case of Cyperus esculentus, pregerminated tubers were planted. In the preemergence treatment, the active ingredients were then immediately applied to the surface of the soil. They were suspended or emulsified in water as the vehicle, and sprayed through atomizing nozzles. After the agents had been applied, the vessels were lightly sprinkler-irrigated to set germination and growth going, and to activate the chemical agents. The vessels were then covered with transparent plastic hoods until the plants had taken root. This cover ensured uniform germination of the test plants (to the extent that this was not impaired by the chemicals), and prevented readily volatile substances from evaporating.
(§2) For postemergence treatment, the plants were first grown to a height of from 3 to 10 cm, depending on their habit, before treated. Hoods were not placed on the pots. The experiments were set up in the greenhouse, hotter areas (25° to 40° C.) being preferred for heat-loving species, and 15° to 30° C. for plants from moderate climates. The experiments were carried out for from 4 to 6 weeks. During this period the plants were tended and their reaction to the various treatments was assessed. The following tables contain the substances investigated, the application rates in kg/ha of active ingredient, and the test plant species. Assessments were made on a 0 to 100 scale, 0 denoting no damage or normal emergence, and 100 denoting no emergence or complete destruction of at least the visible plant parts.

[2] = system: Setar. spp.; test: Table 13, % damage; assay type: in vivo
Text: as §1, §2

[3] = system: Echin c.g.; test: Table 13, % damage; assay type: in vivo
Text: as §1, §2

[4] = system: Alopec. myosur.; test: Table 13, % damage; assay type: in vivo
Text: as §1, §2

[5] = system: Glyc. max; test: preemergence treatment in the greenhouse, % damage; assay type: in vivo, Glycine max
Text: as §1, §2

[6] = system: Bromus spp.; test: preemergence treatment in the greenhouse, % damage; assay type: in vivo
Text: as §1, §2

[7] = system: Matric. spp.; test: preemergence treatment in the greenhouse, % damage; assay type: in vivo
Text: as §1, §2

[8] = system: Cyperus ferax; test: preemergence treatment in the greenhouse, % damage; assay type: in vivo
Text: as §1, §2

[9] = system: Alopec. myosur.; test: preemergence treatment in the greenhouse, % damage; assay type: in vivo
Text: as §1, §2

[10] = system: Echin. c.g.; test: preemergence treatment in the greenhouse, % damage; assay type: in vivo
Text: as §1, §2

[11] = system: Setaria spp.; test: preemergence treatment in the greenhouse, % damage; assay type: in vivo
Text: as §1, §2

[12] = system: Beta vulg.; test: preemergence treatment in the greenhouse, % damage; assay type: in vivo, Beta vulgaris
Text: as §1, §2

[13] = system: Solanum nigrum; test: preemergence treatment in the greenhouse, % damage; assay type: in vivo; settings: 1.0 kg/ha
Text: as §1, §2

[14] = system: Brassica napus; test: preemergence treatment in the greenhouse, % damage; assay type: in vivo; settings: 1.0 kg/ha
Text: as §1, §2

[15] = system: Zea mays; test: preemergence treatment in the greenhouse, % damage; assay type: in vivo; settings: 1.0 kg/ha
Text: as §1, §2

| SMILES | % damage ([1]; appl. rate 1.0) | % damage ([2]; appl. rate 1.0) | % damage ([3]; appl. rate 1.0) | % damage ([4]; appl. rate 1.0) | % damage ([5]; 1.0 kg/ha) | % damage ([6]; 1.0 kg/ha) | % damage ([7]; 1.0 kg/ha) | % damage ([8]; 1.0 kg/ha) | % damage ([9]; 1.0 kg/ha) | % damage ([10]; 1.0 kg/ha) | % damage ([11]; 1.0 kg/ha) | also measured |
| --- | --- | --- | --- | --- | --- | --- | --- | --- | --- | --- | --- | --- |
| Cc1cccc(C)c1N(Cn1ccnc1)C(=O)CCl | 0% | 20% | 40% | 20% | – | – | – | – | – | – | – | – |
| Cc1cccc(C)c1N(Cn1cnc(Cl)c1Cl)C(=O)CCl | 0% | 100% | 100% | 80% | – | – | – | – | – | – | – | % damage ([1]; appl. rate 0.5): 0%; % damage ([2]; appl. rate 0.5): 100%; % damage ([3]; appl. rate 0.5): 100%; % damage ([4]; appl. rate 0.5): 80% |
| CCc1cccc(C)c1N(Cn1cnc(Cl)c1Cl)C(=O)CCl | 0% | 100% | 100% | 100% | – | – | – | – | – | – | – | % damage ([1]; appl. rate 0.5): 0%; % damage ([2]; appl. rate 0.5): 100%; % damage ([3]; appl. rate 0.5): 100%; % damage ([4]; appl. rate 0.5): 100% |
| COc1cnn(CN(C(=O)CCl)c2c(C)cccc2C)c1 | – | – | – | – | 0% | 100% | 95% | 100% | 100% | 100% | 100% | % damage ([5]; 0.5 kg/ha): 0%; % damage ([6]; 0.5 kg/ha): 100%; % damage ([7]; 0.5 kg/ha): 95%; % damage ([8]; 0.5 kg/ha): 100%; % damage ([9]; 0.5 kg/ha): 100%; % damage ([10]; 0.5 kg/ha): 100%; % damage ([11]; 0.5 kg/ha): 100% |
| CCc1cccc(C)c1N(Cn1cc(OC)cn1)C(=O)CCl | – | – | – | – | 0% | 98% | 98% | 100% | 100% | 100% | 100% | % damage ([12]; 0.5 kg/ha): 5%; % damage ([12]; 1.0 kg/ha): 15%; % damage ([5]; 0.5 kg/ha): 0%; % damage ([6]; 0.5 kg/ha): 90%; % damage ([7]; 0.5 kg/ha): 98%; % damage ([8]; 0.5 kg/ha): 100%; % damage ([9]; 0.5 kg/ha): 100%; % damage ([10]; 0.5 kg/ha): 100%; % damage ([11]; 0.5 kg/ha): 100% |
| CCc1cccc(CC)c1N(Cn1cc(OC)cn1)C(=O)CCl | – | – | – | – | 0% | 98% | 90% | 100% | 99% | 100% | 100% | % damage ([12]; 1.0 kg/ha): 10%; % damage ([12]; 2.0 kg/ha): 15%; % damage ([5]; 2.0 kg/ha): 0%; % damage ([6]; 2.0 kg/ha): 98%; % damage ([7]; 2.0 kg/ha): 98%; % damage ([8]; 2.0 kg/ha): 100%; % damage ([9]; 2.0 kg/ha): 99%; % damage ([10]; 2.0 kg/ha): 100%; % damage ([11]; 2.0 kg/ha): 100% |
| Cc1cc(C)n(CN(C(=O)CCl)c2ccccc2C)n1 | – | – | – | – | – | 95% | 90% | – | 85% | 85% | 60% | % damage [13]: 100%; % damage [14]: 10%; % damage [15]: 0% |
